Data taken from PubChem BioAssay (NCI).
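Where inhibition never reached the appropriate level, the endpoint shown equals the highest concentration tested. Otherwise, values were interpolated linearly from a five-concentration, 48-hour dose response in 96-well plates. TGI marks complete inhibition of growth.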

Experiments:
Test in all cases: NCI anticancer screen, dose series, 48 h
[1] = system: 786-0 renal
[2] = system: A498 renal
[3] = system: A549 NSCLC
[4] = system: ACHN renal
[5] = system: CCRF-CEM leukemia
[6] = system: COLO 205 colon
[7] = system: DLD-1 colon
[8] = system: DMS 114 small cell lung
[9] = system: DMS 273 small cell lung
[10] = system: EKVX NSCLC
[11] = system: HCC-2998 colon
[12] = system: HCT-116 colon
[13] = system: HCT-15 colon
[14] = system: HL-60(TB) leukemia
[15] = system: HOP-18 NSCLC
[16] = system: HOP-62 NSCLC
[17] = system: HOP-92 NSCLC
[18] = system: HT29 colon
[19] = system: IGROV1 ovarian
[20] = system: K-562 leukemia
[21] = system: KM12 colon
[22] = system: KM20L2 colon
[23] = system: LOX IMVI melanoma
[24] = system: LXFL 529 NSCLC
[25] = system: M14 melanoma
[26] = system: M19-MEL melanoma
[27] = system: MALME-3M melanoma
[28] = system: MOLT-4 leukemia
[29] = system: NCI-H226 lung
[30] = system: NCI-H23 lung
[31] = system: NCI-H460 lung
[32] = system: NCI-H522 lung
[33] = system: OVCAR-3 ovarian
[34] = system: OVCAR-4 ovarian
[35] = system: OVCAR-5 ovarian
[36] = system: OVCAR-8 ovarian
[37] = system: RPMI-8226 leukemia
[38] = system: RXF 393 renal
[39] = system: SF-268 CNS
[40] = system: SF-295 CNS
[41] = system: SF-539 CNS
[42] = system: SK-MEL-2 melanoma
[43] = system: SK-MEL-28 melanoma
[44] = system: SK-MEL-5 melanoma
[45] = system: SK-OV-3 ovarian
[46] = system: SN12C renal
[47] = system: SNB-19 CNS
[48] = system: SNB-75 CNS
[49] = system: SNB-78 CNS
[50] = system: SR leukemia
[51] = system: SW-620 colon
[52] = system: TK-10 renal
[53] = system: U251 CNS
[54] = system: UACC-257 melanoma
[55] = system: UACC-62 melanoma
[56] = system: UO-31 renal
[57] = system: XF 498 CNS
[58] = system: CAKI-1 renal
[59] = system: RXF-631 renal

Structure (SMILES): CN=C(N)NC
- TGI [1]: > 100 µM
- TGI [2]: > 100 µM
- TGI [3]: > 100 µM
- TGI [4]: > 100 µM
- TGI [5]: > 100 µM
- TGI [6]: > 100 µM
- TGI [7]: > 100 µM
- TGI [8]: > 100 µM
- TGI [9]: > 100 µM
- TGI [10]: > 100 µM
- TGI [11]: > 100 µM
- TGI [12]: > 100 µM
- TGI [13]: > 100 µM
- TGI [14]: > 100 µM
- TGI [15]: > 100 µM
- TGI [16]: > 100 µM
- TGI [17]: > 100 µM
- TGI [18]: > 100 µM
- TGI [19]: > 100 µM
- TGI [20]: > 100 µM
- TGI [21]: > 100 µM
- TGI [22]: > 100 µM
- TGI [23]: > 100 µM
- TGI [24]: > 100 µM
- TGI [25]: > 100 µM
- TGI [26]: > 100 µM
- TGI [27]: > 100 µM
- TGI [28]: > 100 µM
- TGI [29]: > 100 µM
- TGI [30]: > 100 µM
- TGI [31]: > 100 µM
- TGI [32]: > 100 µM
- TGI [33]: > 100 µM
- TGI [34]: > 100 µM
- TGI [35]: > 100 µM
- TGI [36]: > 100 µM
- TGI [37]: > 100 µM
- TGI [38]: > 100 µM
- TGI [39]: > 100 µM
- TGI [40]: > 100 µM
- TGI [41]: > 100 µM
- TGI [42]: > 100 µM
- TGI [43]: > 100 µM
- TGI [44]: > 100 µM
- TGI [45]: > 100 µM
- TGI [46]: > 100 µM
- TGI [47]: > 100 µM
- TGI [48]: > 100 µM
- TGI [49]: > 100 µM
- TGI [50]: > 100 µM
- TGI [51]: > 100 µM
- TGI [52]: > 100 µM
- TGI [53]: > 100 µM
- TGI [54]: > 100 µM
- TGI [55]: > 100 µM
- TGI [56]: > 100 µM
- TGI [57]: > 100 µM

Structure (SMILES): CCCCCN(CCCCC)C(=O)[C@H](CCC(=O)OCc1ccccc1)NC(=O)c1cc2ccccc2[nH]1
- TGI [1]: > 100 µM
- TGI [2]: > 100 µM
- TGI [3]: > 100 µM
- TGI [4]: > 100 µM
- TGI [58]: > 100 µM
- TGI [5]: > 100 µM
- TGI [6]: > 100 µM
- TGI [7]: > 100 µM
- TGI [8]: > 100 µM
- TGI [9]: > 100 µM
- TGI [10]: > 100 µM
- TGI [11]: > 100 µM
- TGI [12]: > 100 µM
- TGI [13]: > 100 µM
- TGI [14]: > 100 µM
- TGI [15]: > 100 µM
- TGI [16]: > 100 µM
- TGI [17]: > 100 µM
- TGI [18]: > 100 µM
- TGI [19]: > 100 µM
- TGI [20]: > 100 µM
- TGI [21]: > 100 µM
- TGI [22]: > 100 µM
- TGI [23]: > 100 µM
- TGI [24]: > 100 µM
- TGI [25]: > 100 µM
- TGI [27]: > 100 µM
- TGI [28]: > 100 µM
- TGI [29]: > 100 µM
- TGI [30]: > 100 µM
- TGI [31]: > 100 µM
- TGI [32]: > 100 µM
- TGI [33]: > 100 µM
- TGI [34]: > 100 µM
- TGI [35]: > 100 µM
- TGI [36]: > 100 µM
- TGI [37]: 7.74 µM
- TGI [38]: > 100 µM
- TGI [59]: > 100 µM
- TGI [39]: > 100 µM
- TGI [40]: > 100 µM
- TGI [41]: > 100 µM
- TGI [42]: > 100 µM
- TGI [43]: > 100 µM
- TGI [45]: > 100 µM
- TGI [46]: > 100 µM
- TGI [47]: > 100 µM
- TGI [48]: > 100 µM
- TGI [49]: > 100 µM
- TGI [51]: > 100 µM
- TGI [53]: > 100 µM
- TGI [54]: > 100 µM
- TGI [55]: > 100 µM
- TGI [56]: > 100 µM
